What was measured:
[1] = biological target: cGMP-inhibited 3',5'-cyclic phosphodiesterase 3A (Homo sapiens, UniProt Q14432); assay: (§1) PDE3A Enzyme Inhibition: The commercially available 3H-cAMP Scintillation Proximity Assay (SPA, Perkin Elmer) system was used for enzyme inhibition studies. For the determination of the in vitro effect of example compounds on the PDE3A reactions 2 μl of the respective example compound solution in DMSO (serial dilutions) were placed in wells of microtiter plates (Isoplate-96/200W; Perkin Elmer). 50 μl of a dilution of PDE3A cell extract from Sf9 cells overexpressing human full length PDE3A (SB Drug Discovery, UK) in buffer A (50 mM Tris/HCl pH 7.5, 8.3 mM MgCl2, 1.7 mM EDTA, 0.2% BSA) was added. The dilution of the PDE3A cell extract was chosen such that the reaction kinetics was linear and less than 70% of the substrate was consumed (typical dilution 1:5000). The reaction was started by addition of 50 μl (0.025 μCi) of 1:2000 in buffer A w/o BSA diluted substrate [8-3H]adenosine 3′, 5′-cyclic phosphate (1 μCi/μl; Perkin Elmer). After incubation at room temperature for 60 min, the reaction was stopped by addition of 25 μl of a suspension containing 18 mg/ml yttrium scintillation proximity beads (Perkin Elmer) in water. The microtiter plates were sealed and measured in a Microbeta scintillation counter (PerkinElmer Wallac). IC50 values were determined from sigmoidal curves by plotting percentage PDE3A activity vs log compound concentration.
[2] = biological target: cGMP-inhibited 3',5'-cyclic phosphodiesterase 3B (Homo sapiens, UniProt Q13370); assay: as §1, with “PDE3B” for “PDE3A”, “1:6000).” for “1:5000).”
cGMP-inhibited 3',5'-cyclic phosphodiesterase 3B, sequence (Q13370 whole entry): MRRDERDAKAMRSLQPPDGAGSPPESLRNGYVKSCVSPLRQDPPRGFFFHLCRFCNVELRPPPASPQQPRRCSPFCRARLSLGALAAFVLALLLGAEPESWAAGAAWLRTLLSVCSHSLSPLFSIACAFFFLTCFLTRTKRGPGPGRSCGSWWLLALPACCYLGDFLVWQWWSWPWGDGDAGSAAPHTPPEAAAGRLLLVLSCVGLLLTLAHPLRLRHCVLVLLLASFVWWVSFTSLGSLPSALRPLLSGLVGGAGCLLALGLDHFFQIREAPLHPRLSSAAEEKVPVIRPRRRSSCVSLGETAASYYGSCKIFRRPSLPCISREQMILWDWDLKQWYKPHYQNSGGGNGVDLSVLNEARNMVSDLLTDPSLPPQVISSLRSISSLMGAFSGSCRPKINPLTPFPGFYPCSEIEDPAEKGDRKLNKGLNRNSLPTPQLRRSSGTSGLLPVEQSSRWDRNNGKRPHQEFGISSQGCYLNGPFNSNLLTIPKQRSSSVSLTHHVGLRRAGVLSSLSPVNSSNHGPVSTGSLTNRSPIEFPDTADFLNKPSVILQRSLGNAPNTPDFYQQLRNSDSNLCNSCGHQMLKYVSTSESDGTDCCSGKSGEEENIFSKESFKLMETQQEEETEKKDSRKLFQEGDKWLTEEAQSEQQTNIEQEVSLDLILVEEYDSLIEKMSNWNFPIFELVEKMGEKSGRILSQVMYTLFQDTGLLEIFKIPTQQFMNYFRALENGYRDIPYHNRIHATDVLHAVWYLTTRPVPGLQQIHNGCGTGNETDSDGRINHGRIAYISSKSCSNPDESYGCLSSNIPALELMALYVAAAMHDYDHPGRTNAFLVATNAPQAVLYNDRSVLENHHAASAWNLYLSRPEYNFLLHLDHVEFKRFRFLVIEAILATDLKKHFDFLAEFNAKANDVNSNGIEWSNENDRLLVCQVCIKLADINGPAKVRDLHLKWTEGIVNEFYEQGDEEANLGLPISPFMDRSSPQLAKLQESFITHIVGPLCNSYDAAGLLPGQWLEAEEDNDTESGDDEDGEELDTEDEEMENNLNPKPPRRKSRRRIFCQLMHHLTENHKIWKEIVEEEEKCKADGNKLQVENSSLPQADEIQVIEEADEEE

cGMP-inhibited 3',5'-cyclic phosphodiesterase 3A, sequence (Q14432 whole entry): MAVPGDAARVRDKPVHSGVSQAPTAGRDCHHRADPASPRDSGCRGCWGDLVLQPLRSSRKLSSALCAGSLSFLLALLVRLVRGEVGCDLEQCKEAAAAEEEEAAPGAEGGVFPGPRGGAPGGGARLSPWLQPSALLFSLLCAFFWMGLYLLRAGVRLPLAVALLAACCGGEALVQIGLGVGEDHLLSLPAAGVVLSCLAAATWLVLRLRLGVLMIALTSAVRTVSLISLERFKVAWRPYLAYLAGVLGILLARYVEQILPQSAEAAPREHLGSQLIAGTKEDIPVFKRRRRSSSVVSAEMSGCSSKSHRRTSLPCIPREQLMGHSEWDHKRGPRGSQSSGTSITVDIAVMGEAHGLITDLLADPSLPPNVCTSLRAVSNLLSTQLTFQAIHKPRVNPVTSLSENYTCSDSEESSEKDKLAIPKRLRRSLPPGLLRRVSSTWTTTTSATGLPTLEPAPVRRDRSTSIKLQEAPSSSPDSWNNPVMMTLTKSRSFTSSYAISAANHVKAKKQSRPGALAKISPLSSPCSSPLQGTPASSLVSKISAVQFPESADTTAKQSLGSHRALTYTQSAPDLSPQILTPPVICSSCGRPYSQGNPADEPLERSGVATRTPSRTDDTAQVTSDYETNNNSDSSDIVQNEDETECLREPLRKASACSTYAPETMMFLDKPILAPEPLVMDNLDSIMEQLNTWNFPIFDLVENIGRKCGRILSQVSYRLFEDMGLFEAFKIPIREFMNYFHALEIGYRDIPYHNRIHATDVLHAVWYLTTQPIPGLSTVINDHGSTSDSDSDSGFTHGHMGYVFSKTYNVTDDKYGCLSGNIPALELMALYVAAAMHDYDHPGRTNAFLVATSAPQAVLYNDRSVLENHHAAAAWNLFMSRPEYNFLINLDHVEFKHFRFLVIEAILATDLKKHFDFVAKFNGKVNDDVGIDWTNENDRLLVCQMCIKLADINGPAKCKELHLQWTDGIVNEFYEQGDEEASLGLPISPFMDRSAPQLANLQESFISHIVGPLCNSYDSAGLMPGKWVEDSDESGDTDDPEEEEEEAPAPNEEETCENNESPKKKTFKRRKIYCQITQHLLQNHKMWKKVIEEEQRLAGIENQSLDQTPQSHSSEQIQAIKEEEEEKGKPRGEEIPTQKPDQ

Compound | IC50 [1] | IC50 [2]
C[C@@H]1OC(=O)NN=C1c1ccc(N2CC(F)(F)C2)c(C(F)(F)F)c1 | 20 nM | 23 nM
Cc1cc(C2=NNC(=O)OC2)ccc1-c1cccnc1 | 110 nM | 44 nM
C[C@@H]1OC(=O)NN=C1c1ccc(-n2ccc(C(F)(F)F)n2)c(C(F)(F)F)c1 | 657 nM | 383 nM
C[C@@H]1OC(=O)NN=C1c1ccc(N2CC(C)(O)C2)c(C(F)(F)F)c1 | 11 nM | 9 nM

— ChEMBL document CHEMBL5729281, “Dihydrooxadiazinones” (2022)
